Measured values published in patent publication US5512576A, “2-substituted 1,2,5,-thiadiazolidin-3-one 1,1-dioxides and compositions and method of use thereof” (Sterling Winthrop Inc., priority 1994, dated 1996).

Molecular target: T1, human leukocyte elastase (Homo sapiens, UniProt P08246)
T1 sequence (P08246 30-267): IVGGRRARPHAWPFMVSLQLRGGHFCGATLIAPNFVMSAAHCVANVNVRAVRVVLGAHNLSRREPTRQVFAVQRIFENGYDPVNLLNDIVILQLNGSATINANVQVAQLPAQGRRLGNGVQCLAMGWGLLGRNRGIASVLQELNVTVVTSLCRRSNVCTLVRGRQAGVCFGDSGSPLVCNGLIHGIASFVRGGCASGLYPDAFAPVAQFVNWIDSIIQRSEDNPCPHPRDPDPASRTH
Assay: human leukocyte elastase (HLE) inhibition, in vitro, substrate MeOSuc-Ala-Ala-Pro-Val-pNA
Type: biochemical
Conditions: pH 7.8 at 25° C., absorbance at 410 nm, read-out: Ki, human leukocyte elastase inhibitory activity
Protocol: The test compound (inhibitor) is dissolved in DMSO in a vial to produce an inhibitor stock solution which has a concentration in the range of 200-1000 μM. The inhibitor stock solution is diluted (1:4, 1:16 and 1:64) into assay vials (vials 1, 2 and 3 respectively) containing 2.4 mL of buffer solution (50 mM N- 2-hydroxyethyl!piperazine-N'- 2-ethanesulfonic acid!/NaOH, 500 mM NaCl, pH 7.8 at 25° C.) and DMSO is added so that the total volume in each vial is 3.2 mL. 70 μL, 50 μL, 35 μL and 25 μL of inhibitor from assay vial 1 is placed into the first four wells of a 96-well microtiter plate and each well is made up to 90 μL total volume with the addition of a 25% DMSO/buffer solution. […]
The 96-well microtiter plate is placed into a Microplate Reader #89815A spectrophotometer and 110 BL of the enzyme solution (prepared as follows: a mixture of 20 mL of buffer solution and 20 mg of bovine serum albumen is gently vortexed in a scintillation vial and 5 BL HLE stock solution (1 mg/mL dissolved in deionized water) is added) is added simultaneously to each of the 16 wells. Each of the solutions in the wells is throughly mixed and then the time-dependent absorbance data is collected at an absorbance of 410 nm until the assay is complete. […]
A plot of the absorbance versus time data thus obtained affords progress curves the final slope of which is equal to the final steady-state velocities (VF). […]

Ki: 0.79 nM
Structure (SMILES): CC(C)CCC1C(=O)N(COc2cc(=O)n3ccccc3n2)S(=O)(=O)N1C (stereo not shown) [Example 1(j), 2-(4-oxo-4-H-pyrido 1,2-a!pyrimidin-2-yl-oxymethyl)-4-(3-methylbutyl)-5-methyl-1,2,5-thiadiazolidin-3-one 1,1-dioxide]
